US11584747B2, “Substituted pyridopyrimidinonyl compounds useful as T cell activators” (BRISTOL-MYERS SQUIBB COMPANY, priority 2019, dated 2023)
pEC50, pIC50: −log10 of the molar value. Where two headings read alike, the source gives them in different places.

Experiments:
[1] = tested on: human venous whole blood (IFN-γ); assay: Human whole blood IFN-γ assay; type: cell-based
Protocol: Human venous whole blood (22.5 μL per well), obtained from healthy donors, was pre-treated with compounds for one hour at 37° C. in a humidified 95% air/5% CO2 incubator. The blood was stimulated with 2.5 μL anti-human CD3 and anti-CD28 mAb at a final concentration of 1 μg/mL each for 24 hours at 37° C. IFN-γ in the supernatants was measured using AlphLISA kit (Cat #AL217).

human DGKα = human DGKα (Homo sapiens (Human), UniProt P23743); assay: DGKα ADPGLO assay (detergent/lipid micelle substrate); type: biochemical
Protocol: DGK Alpha ADPGLO (Truncated) IC50 (uM)
The detergent/lipid micelle was prepared by combining 15 g phosphatidylserine (Avanti 840035P) and 1 g diacylglycerol (8008110) and dissolving into 150 mL chloroform in a 2 L round bottom flask. Chloroform was removed under high vacuum by rotary evaporation. […] The lipid/detergent solution was split into 5 mL aliquots and stored at −80° C.

human DGKζ = human DGKζ (Homo sapiens (Human), UniProt Q13574); assay: DGKζ LIPGLO assay (extruded liposome substrate, ADP-Glo luminescence); type: biochemical
[2] = human whole blood, anti-CD3 plus anti-CD28 stimulation, 24 hours, read-out: IFN-γ Whole Blood EC50
[3] = ADPGLO assay, read-out: DGK alpha ADPGLO IC50
[4] = liposome (LIPGLO) assay, read-out: DGK zeta (liposome assay) IC50
[5] = whole blood, normalized to 3 μM reference compound as 100% activation, read-out: IFN-γ Whole Blood Normalized EC50
[6] = truncated DGK alpha, read-out: DGK alpha ADPGLO (Truncated) IC50
[7] = liposome assay, read-out: DGK zeta LIPGLO IC50
[8] = Homo sapiens, whole blood, normalized to 3 μM reference compound as 100% activation, read-out: IFN-γ Whole Blood Normalized EC50

Chain of human DGKζ (Q13574 other isoform, or with tags, fused parts or gaps): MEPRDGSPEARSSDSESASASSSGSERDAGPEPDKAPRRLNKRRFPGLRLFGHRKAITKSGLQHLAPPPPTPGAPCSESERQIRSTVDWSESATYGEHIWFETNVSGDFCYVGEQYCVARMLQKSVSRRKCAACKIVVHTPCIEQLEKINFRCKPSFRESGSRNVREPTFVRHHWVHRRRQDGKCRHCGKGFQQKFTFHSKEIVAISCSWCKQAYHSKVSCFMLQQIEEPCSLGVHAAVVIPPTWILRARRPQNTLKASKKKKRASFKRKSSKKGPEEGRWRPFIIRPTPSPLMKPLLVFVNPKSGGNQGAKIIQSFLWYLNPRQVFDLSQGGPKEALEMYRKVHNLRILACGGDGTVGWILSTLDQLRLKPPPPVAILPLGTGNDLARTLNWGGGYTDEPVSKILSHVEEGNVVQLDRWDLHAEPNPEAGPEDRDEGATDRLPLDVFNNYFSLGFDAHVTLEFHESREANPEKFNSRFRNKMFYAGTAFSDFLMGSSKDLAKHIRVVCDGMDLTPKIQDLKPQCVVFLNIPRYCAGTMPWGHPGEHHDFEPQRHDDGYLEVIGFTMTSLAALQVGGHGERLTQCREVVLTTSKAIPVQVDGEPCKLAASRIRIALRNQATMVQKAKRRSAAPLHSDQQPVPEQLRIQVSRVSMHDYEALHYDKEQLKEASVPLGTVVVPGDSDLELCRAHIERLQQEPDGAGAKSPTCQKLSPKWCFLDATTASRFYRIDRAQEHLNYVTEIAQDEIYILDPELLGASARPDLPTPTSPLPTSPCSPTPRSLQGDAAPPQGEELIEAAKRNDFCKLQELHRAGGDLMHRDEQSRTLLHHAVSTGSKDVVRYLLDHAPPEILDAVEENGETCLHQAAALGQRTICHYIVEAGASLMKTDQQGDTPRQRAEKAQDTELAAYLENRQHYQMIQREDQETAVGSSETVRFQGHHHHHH
Chain of human DGKα (P23743 whole entry, looked up, the tested form may be a part): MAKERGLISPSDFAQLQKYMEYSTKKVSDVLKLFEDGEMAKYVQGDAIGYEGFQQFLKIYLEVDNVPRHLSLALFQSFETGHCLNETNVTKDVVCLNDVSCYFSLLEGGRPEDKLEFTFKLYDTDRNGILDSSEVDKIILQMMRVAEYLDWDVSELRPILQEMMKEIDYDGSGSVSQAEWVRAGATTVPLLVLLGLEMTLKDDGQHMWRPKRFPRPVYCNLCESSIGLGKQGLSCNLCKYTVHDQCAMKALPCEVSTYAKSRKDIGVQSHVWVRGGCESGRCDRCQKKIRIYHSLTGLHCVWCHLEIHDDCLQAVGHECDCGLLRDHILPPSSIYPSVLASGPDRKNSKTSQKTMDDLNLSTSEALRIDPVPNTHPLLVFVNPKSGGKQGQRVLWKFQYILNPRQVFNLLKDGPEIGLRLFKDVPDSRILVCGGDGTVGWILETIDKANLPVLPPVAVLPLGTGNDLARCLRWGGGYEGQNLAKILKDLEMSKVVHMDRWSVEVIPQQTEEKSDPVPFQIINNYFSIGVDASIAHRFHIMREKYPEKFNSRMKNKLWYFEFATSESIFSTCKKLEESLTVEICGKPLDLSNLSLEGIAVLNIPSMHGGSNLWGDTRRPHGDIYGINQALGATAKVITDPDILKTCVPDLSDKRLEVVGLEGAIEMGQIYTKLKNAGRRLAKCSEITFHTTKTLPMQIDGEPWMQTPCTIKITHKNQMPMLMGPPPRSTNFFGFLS

| Compound | pEC50 [1, 2] | pIC50 (human DGKα; [3]) | pIC50 (human DGKζ; [4]) | pEC50 [1, 5] | pIC50 (human DGKα; [6]) | pIC50 (human DGKζ; [7]) | pEC50 [1, 8] |
| --- | --- | --- | --- | --- | --- | --- | --- |
| CC[C@H]1CN(C(C)c2nc(C3CC3)no2)[C@H](CC)CN1c1nc(=O)n(C)c2ccc(C#N)nc12 (stereo partly drawn) [Example 362, 4-((2S,5R)-4-(1-(3-cyclopropyl-1,2,4-oxadiazol-5-yl)ethyl)-2,5-diethylpiperazin-1-yl)-1-methyl-2-oxo-1,2-dihydropyrido[3,2-d]pyrimidine-6-carbonitrile] | 5.51 | 7.21 | 6.23 | – | – | – | – |
| CCC(c1ccc(OC)cc1)N1C[C@H](CC)N(c2nc(=O)n(C)c3ccc(C#N)nc23)C[C@H]1CC (stereo partly drawn) [Example 213, 4-((2S,5R)-2,5-diethyl-4-(1-(4-methoxyphenyl)propyl)piperazin-1-yl)-1-methyl-2-oxo-1,2-dihydropyrido[3,2-d]pyrimidine-6-carbonitrile] | – | – | – | 6.72 | 7.23 | 6.02 | – |
| CC[C@H]1CN(C(C)c2ccc3oc(=O)n(C)c3c2)[C@H](CC)CN1c1nc(=O)n(C)c2ccc(C#N)nc12 (stereo partly drawn) [Example 202, 4-((2S,5R)-2,5-diethyl-4-(1-(3-methyl-2-oxo-2,3-dihydrobenzo[d]oxazol-5-yl)ethyl)piperazin-1-yl)-1-methyl-2-oxo-1,2-dihydropyrido[3,2-d]pyrimidine-6-carbonitrile] | – | – | – | 6.80 | 6.44 | 6.38 | – |
| CC[C@@H]1CN(c2nc(=O)n(C)c3ccc(C#N)nc23)[C@@H](C)CN1C(C)c1ccc2oc(=O)n(C)c2c1 (stereo partly drawn) [Example 299, 4-((2S,5R)-5-ethyl-2-methyl-4-(1-(3-methyl-2-oxo-2,3-dihydrobenzo[d]oxazol-5-yl)ethyl)piperazin-1-yl)-1-methyl-2-oxo-1,2-dihydropyrido[3,2-d]pyrimidine-6-carbonitrile] | – | – | – | 5.46 | 5.89 | 5.33 | – |
| CC[C@H]1CN(C(c2ccc(F)cc2)c2csc(C(F)(F)F)n2)[C@H](CC)CN1c1nc(=O)n(C)c2ccc(C#N)nc12 (stereo partly drawn) [Example 211, 4-((2S,5R)-2,5-diethyl-4((4-fluorophenyl)(2-(trifluoromethyl)thiazol-4-yl)methyl)piperazin-1-yl)-1-methyl-2-oxo-1,2-dihydropyrido[3,2-d]pyrimidine-6-carbonitrile] | – | – | – | 7.74 | 7.34 | 7.00 | – |
| CCC(c1ccc(OC(F)F)cc1)N1C[C@H](CC)N(c2nc(=O)n(C)c3ccc(C#N)nc23)C[C@H]1CC (stereo partly drawn) [Example 223, 4-((2S,5R)-4-(1-(4-(difluoromethoxy)phenyl)propyl)-2,5-diethylpiperazin-1-yl)-1-methyl-2-oxo-1,2-dihydropyrido[3,2-d]pyrimidine-6-carbonitrile] | – | – | – | – | 6.89 | 5.68 | 6.05 |
| CCC(c1ccc(C#N)cc1)N1C[C@H](CC)N(c2nc(=O)n(C)c3ccc(C#N)nc23)C[C@H]1CC (stereo partly drawn) [Example 221, 4-((2S,5R)-4-(1-(4-cyanophenyl)propyl)-2,5-diethylpiperazin-1-yl)-1-methyl-2-oxo-1,2-dihydropyrido[3,2-d] pyrimidine-6-carbonitrile] | – | – | – | 6.32 | 8.70 | 6.60 | – |
| CC[C@H]1CN(C(C)c2ccc(C3CC3)nc2)[C@H](CC)CN1c1nc(=O)n(C)c2ccc(C#N)nc12 (stereo partly drawn) [Example 193, 4-((2 S,5R)-4-(1-(6-cyclopropylpyridin-3-yl)ethyl)-2,5-diethylpiperazin-1-yl)-1-methyl-2-oxo-1,2-dihydropyrido[3,2-d]pyrimidine-6-carbonitrile] | – | – | – | 5.94 | 6.19 | 5.75 | – |
| CC[C@H]1CN(C(C)c2cnc(C(F)(F)F)nc2)[C@H](CC)CN1c1nc(=O)n(C)c2ccc(C#N)nc12 (stereo partly drawn) [Example 227, 4-((2S,5R)-2,5-diethyl-4-(1-(2-(trifluoromethyl)pyrimidin-5-yl)ethyl)piperazin-1-yl)-1-methyl-2-oxo-1,2-dihydropyrido[3,2-d]pyrimidine-6-carbonitrile] | – | – | – | 6.19 | 5.61 | 5.75 | – |
| CCC(c1ccc(OCC2CC2)cc1)N1C[C@H](CC)N(c2nc(=O)n(C)c3ccc(C#N)nc23)C[C@H]1CC (stereo partly drawn) [Example 217, 4-((2S,5R)-4-(1-(4-(cyclopropylmethoxy)phenyl)propyl)-2,5-diethylpiperazin-1-yl)-1-methyl-2-oxo-1,2-dihydropyrido[3,2-d]pyrimidine-6-carbonitrile] | – | – | – | 6.06 | 5.78 | 5.37 | – |
| [2H]C([2H])([2H])Oc1ccc(C(CC)N2C[C@H](CC)N(c3nc(=O)n(C)c4ccc(C#N)nc34)C[C@H]2CC)cc1 (single isomer, unassigned) [Example 208] | – | – | – | 7.77 | 7.60 | 7.11 | – |
| CC[C@H]1CN(C(C)c2cnc(N3CCOCC3)nc2)[C@H](CC)CN1c1nc(=O)n(C)c2ccc(C#N)nc12 (stereo partly drawn) [Example 207, 4-((2S,5R)-2,5-diethyl-4-(1-(2-morpholinopyrimidin-5-yl)ethyl)piperazin-1-yl)-1-methyl-2-oxo-1,2-dihydropyrido[3,2-d] pyrimidine-6-carbonitrile] | – | – | – | 5.97 | 6.21 | 6.01 | – |
| CCC(c1ccc(C#N)cc1)N1C[C@H](CC)N(c2nc(=O)n(C)c3ccc(C#N)nc23)C[C@H]1CC (stereo partly drawn) [Example 220, 4-((2S,5R)-4-(1-(4-cyanophenyl)propyl)-2,5-diethylpiperazin-1-yl)-1-methyl-2-oxo-1,2-dihydropyrido[3,2-d] pyrimidine-6-carbonitrile] | – | – | – | 7.09 | 6.96 | 7.34 | – |
| CC[C@H]1CN(C(C)c2ccc(N3CCCC3=O)cc2)[C@H](CC)CN1c1nc(=O)n(C)c2ccc(C#N)nc12 (stereo partly drawn) [Example 230, 4-((2S,5R)-2,5-diethyl-4-(1-(4-(2-oxopyrrolidin-1-yl)phenyl)ethyl)piperazin-1-yl)-1-methyl-2-oxo-1,2-dihydropyrido[3,2-d]pyrimidine-6-carbonitrile] | – | – | – | 5.89 | 7.38 | 6.89 | – |
| CC[C@H]1CN(C(c2ccc(F)cc2)c2csc(C(F)(F)F)n2)[C@H](CC)CN1c1nc(=O)n(C)c2ccc(C#N)nc12 (stereo partly drawn) [Example 210, 4-((2S,5R)-2,5-diethyl-4((4-fluorophenyl)(2-(trifluoromethyl)thiazol-4-yl)methyl)piperazin-1-yl)-1-methyl-2-oxo-1,2-dihydropyrido[3,2-d]pyrimidine-6-carbonitrile] | – | – | – | – | 7.34 | 6.01 | 7.51 |
| CC[C@H]1CN(C(C)c2ccc(C)nc2)[C@H](CC)CN1c1nc(=O)n(C)c2ccc(C#N)nc12 (stereo partly drawn) [Example 229, 4-((2S,5R)-2,5-diethyl-4-(1-(6-methylpyridin-3-yl)ethyl)piperazin-1-yl)-1-methyl-2-oxo-1,2-dihydropyrido[3,2-d]pyrimidine-6-carbonitrile] | – | – | – | 5.79 | 6.17 | 5.45 | – |
| CC[C@H]1CN(C(C)c2ccc3oc(=O)n(C)c3c2)[C@H](CC)CN1c1nc(=O)n(C)c2ccc(C#N)nc12 (stereo partly drawn) [Example 203, 4-((2S,5R)-2,5-diethyl-4-(1-(3-methyl-2-oxo-2,3-dihydrobenzo[d]oxazol-5-yl)ethyl)piperazin-1-yl)-1-methyl-2-oxo-1,2-dihydropyrido[3,2-d]pyrimidine-6-carbonitrile] | – | – | – | 5.66 | 6.11 | 5.57 | – |
| CC[C@H]1CN(C(C)c2ccc(C3CC3)nc2)[C@H](CC)CN1c1nc(=O)n(C)c2ccc(C#N)nc12 (stereo partly drawn) [Example 192, 4-((2 S,5R)-4-(1-(6-cyclopropylpyridin-3-yl)ethyl)-2,5-diethylpiperazin-1-yl)-1-methyl-2-oxo-1,2-dihydropyrido[3,2-d]pyrimidine-6-carbonitrile] | – | – | – | 6.96 | 7.21 | 7.28 | – |
| CCC(c1ccc(OCC2CC2)cc1)N1C[C@H](CC)N(c2nc(=O)n(C)c3ccc(C#N)nc23)C[C@H]1CC (stereo partly drawn) [Example 216, 4-((2S,5R)-4-(1-(4-(cyclopropylmethoxy)phenyl)propyl)-2,5-diethylpiperazin-1-yl)-1-methyl-2-oxo-1,2-dihydropyrido[3,2-d]pyrimidine-6-carbonitrile] | – | – | – | 7.92 | 7.06 | 7.06 | – |
| CC[C@H]1CN(C(C)c2nc(C3CC3)no2)[C@H](CC)CN1c1nc(=O)n(C)c2ccc(C#N)nc12 (stereo partly drawn) [Example 361, 4-((2S,5R)-4-(1-(3-cyclopropyl-1,2,4-oxadiazol-5-yl)ethyl)-2,5-diethylpiperazin-1-yl)-1-methyl-2-oxo-1,2-dihydropyrido[3,2-d]pyrimidine-6-carbonitrile] | 6.59 | 8.30 | 7.66 | – | – | – | – |
| CC[C@@H]1CN(c2nc(=O)n(C)c3ccc(C#N)nc23)[C@@H](CC)CN1Cc1ccc(C(F)(F)F)cc1F [Example 204, 4-((2S,5R)-2,5-diethyl-4-(2-fluoro-4-(trifluoromethyl)benzyl)piperazin-1-yl)-1-methyl-2-oxo-1,2-dihydropyrido[3,2-d]pyrimidine-6-carbonitrile] | – | – | – | – | 6.92 | 5.85 | 6.39 |
| CC[C@H]1CN(C(C)c2ccc(CN3CCC(OC)CC3)cc2)[C@H](CC)CN1c1nc(=O)n(C)c2ccc(C#N)nc12 (single isomer, unassigned) [Example 274] | – | – | – | 5.27 | 4.80 | 3.76 | – |
